Publication PMC10770490, “Two distinct modes of action of molecular glues in the plant hormone co-receptor COI1-JAZ system” (iScience, 2023)
Read-outs that look alike come from different tables or passages of the source.

Assays:
COI1-JAZ1 = target: T1, COI1-JAZ1 (Arabidopsis thaliana, UniProt O04197+Q9LMA8, DEL221-253); experiment: biochemical; type: binding
T1 construct: GST (N, cleaved yes); made in house; host or cells: Sf9 insect cells (COI1-ASK1); JAZ peptide by chemical synthesis
Protocol: (§1) JAZ1/9 peptides were dissolved in sterilized water to generate 10 mM stock solutions and diluted to prepare 100 μM stock solutions. […] DSF experiments were carried out using StepOnePlus Real-Time PCR System (Thermo Fisher Scientific, Inc., MA, US). Protein Thermal Shift Dye (Thermo Fisher Scientific, Inc., MA, US) was used as the reporter dye. […] Samples were heated from 25 °C to 95 °C. The denaturation curve was obtained using Protein Thermal Shift Software (Thermo Fisher Scientific, Inc., MA, US) to afford ΔTm value for each condition. An average ΔTm value of three independent measurements was plotted, and ΔTm dose-response curves were analyzed with nonlinear curve-fitting analysis to evaluate Ka and Kd values using KaleidaGraph software (v4.1.1, Synergy Software).
(§2) The determination of the Kd value was conducted by curve fitting the dose-response ΔTm values. Experiments were performed in triplicate to obtain the mean and S.D. (shown as error bars). Dose-response curves were analyzed with the nonlinear curve-fitting analysis to evaluate apparent Ka and Kd values using KaleidaGraph v4.1.1 software.

COI1 [1] = target: T2, COI1 (Arabidopsis thaliana, UniProt O04197); experiment: Differential scanning fluorimetry (DSF) assay, COI1 alone; type: binding; conditions: for shift in the melting point of COI1: COI1 alone, substance titrated
T2 construct: GST (N, cleaved yes); made in house; host or cells: Sf9 insect cells
Protocol: as §1, with “COR/COR-MO/CFA-Ile were dissolved in DMSO, (3R,7S)/(3R,7R)-JA-Ile and cis-OPDA were dissolved in ethanol, JA was dissolved in sterilized water to generate 10 mM stock solutions and diluted with corresponding solvent for preparation of 100 μM and 1 mM stock solutions, respectively. JAZ1/9” for “JAZ1/9”
as §2

[2] = parameters: method as in PMID 19349968; conditions: after 1 h of heating at 95°C ref 12; cited from earlier work
GST-COI1/JAZP1 = target: T3, GST-COI1/JAZP1 (Arabidopsis thaliana, UniProt O04197+Q9LMA8, DEL221-253); experiment: Isothermal titration calorimetry (iTC), GST-COI1/JAZP1; type: binding
T3 construct: made in house; host or cells: Sf9 insect cells (GST-COI1/ASK1); JAZ peptide by chemical synthesis
T3 sequence (Q9LMA8 200-220, stated change not applied, one chain of several): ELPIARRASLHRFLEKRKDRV
Protocol: The experiments were performed with iTC 200 Microcalorimeter (MicroCal, Malvern Panalytical, UK) at 25°C. […] The measurements were carried out by 19 × 2 μL successive injections of solutions (initial injection of 0.4 μL), with a 180s spacing time between injections, stirring of 750 rpm, and a reference power of 5 μcal/s. The measured heat changes of the binding reactions were integrated and processed using the standard “one set of sites” model implemented in the Origin (version 7.0) software package to determine the binding stoichiometry (n) and the equilibrium dissociation constant (Kd) and other thermodynamic parameters (ΔG, ΔH, ΔS).

[3] = Isomerization under DSF conditions analyzed by UPLC-MS/MS; type: physicochemical; conditions: DSF heating conditions
From the text: Thus, some amount of (3R, 7S)-JA-Ile still exists under the DSF heating conditions.

JAZP1 = system: T4, JAZP1; experiment: Isothermal titration calorimetry (iTC), JAZP1 only; type: binding, Arabidopsis thaliana; conditions: 150 μM ligand into JAZP1 (10 μM), only heat of dilution
T4 construct: made in house; host or cells: chemical peptide synthesis
Protocol: (§3) The experiments were performed with iTC 200 Microcalorimeter (MicroCal, Malvern Panalytical, UK) at 25°C. GST-COI1 concentration was determined by BCA assay (Thermo Fisher Scientific, Inc., MA, US) using NanoPhotometerN60 (IMPLEN GmbH, Germany). […] The measurements were carried out by 19 × 2 μL successive injections of solutions (initial injection of 0.4 μL), with a 180s spacing time between injections, stirring of 750 rpm, and a reference power of 5 μcal/s. The measured heat changes of the binding reactions were integrated and processed using the standard “one set of sites” model implemented in the Origin (version 7.0) software package to determine the binding stoichiometry (n) and the equilibrium dissociation constant (Kd) and other thermodynamic parameters (ΔG, ΔH, ΔS).

COI1-JAZ9 [4] = target: T5, COI1-JAZ9 (Arabidopsis thaliana, UniProt O04197+Q8W4J8); experiment: DSF assay, COI1 with JAZ9 degron peptide (JAZP9); type: binding
T5 sequence (Q8W4J8 218-238, one chain of several): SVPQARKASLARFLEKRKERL
Protocol: as §1, with “COR/COR-MO/CFA-Ile were dissolved in DMSO, (3R,7S)/(3R,7R)-JA-Ile and cis-OPDA were dissolved in ethanol, JA was dissolved in sterilized water to generate 10 mM stock solutions and diluted with corresponding solvent for preparation of 100 μM and 1 mM stock solutions, respectively. JAZ1/9” for “JAZ1/9”
as §2

GST-COI1 = target: T6, GST-COI1 (Arabidopsis thaliana, UniProt O04197); experiment: Isothermal titration calorimetry (iTC), GST-COI1 only; type: binding
T6 construct: made in house; host or cells: Sf9 insect cells
T6 sequence (O04197 1-592): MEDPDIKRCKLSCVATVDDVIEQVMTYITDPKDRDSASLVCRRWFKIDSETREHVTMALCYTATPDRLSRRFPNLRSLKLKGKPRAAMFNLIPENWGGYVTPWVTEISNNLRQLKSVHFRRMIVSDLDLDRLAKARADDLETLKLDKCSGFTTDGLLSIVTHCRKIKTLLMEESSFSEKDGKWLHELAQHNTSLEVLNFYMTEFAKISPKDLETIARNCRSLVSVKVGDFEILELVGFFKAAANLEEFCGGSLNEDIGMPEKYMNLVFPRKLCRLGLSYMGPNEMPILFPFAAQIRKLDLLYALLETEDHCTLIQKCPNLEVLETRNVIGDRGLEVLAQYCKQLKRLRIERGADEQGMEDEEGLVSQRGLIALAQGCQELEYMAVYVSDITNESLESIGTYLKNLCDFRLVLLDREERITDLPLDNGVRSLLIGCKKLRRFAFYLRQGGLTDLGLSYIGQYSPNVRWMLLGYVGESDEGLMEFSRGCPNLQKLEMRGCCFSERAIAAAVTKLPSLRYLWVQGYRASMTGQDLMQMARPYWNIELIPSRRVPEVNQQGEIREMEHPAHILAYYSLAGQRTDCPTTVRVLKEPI
T6 sequence (Q39255 1-160 partner): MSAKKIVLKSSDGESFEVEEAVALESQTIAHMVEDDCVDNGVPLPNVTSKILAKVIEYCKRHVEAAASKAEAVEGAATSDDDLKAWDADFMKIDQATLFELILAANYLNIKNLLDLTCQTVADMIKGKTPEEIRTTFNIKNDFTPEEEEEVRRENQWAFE
Protocol: as §3

COI1-JAZ9 [5] = target: T5, COI1-JAZ9; parameters: method as in PMID 19349968; conditions: pull-down assay, times stronger ref 12; cited from earlier work
COI1 [6] = target: T2, COI1; conditions: read-out: Kd (COI1, iTC assay); previously reported using the iTC assay ref 18; cited from earlier work
COI1-JAZP1 = target: COI1-JAZP1; parameters: method as in PMID 20927106; conditions: previously obtained ref 19; cited from earlier work

CC/C=C\C[C@H]1C(=O)CC[C@@H]1CC(=O)O (racemic) [racemic jasmonic acid, jasmonic acid]
effect of addition of JAZP1/9 on the shift in melting point (COI1-JAZ1; DSF, COI1 with JAZP1/9): did not affect the shift in melting point | shift in the melting point of COI1 (COI1 [1]; DSF): no shift

CC/C=C\C[C@@H]1C(=O)CC[C@@H]1CC(=O)N[C@H](C(=O)O)[C@@H](C)CC [(3R, 7S)-JA-Ile, (3R, 7S)-jasmonoyl-L-isoleucine]
(3R, 7S)-JA-Ile isomerized to (3R, 7R)-JA-Ile [2]: 65% | -TΔS (GST-COI1/JAZP1): 14.8 kcal/mol | n (binding stoichiometry) (GST-COI1/JAZP1): 0.641±0.0063 | ΔG (GST-COI1/JAZP1): -9.5 kcal/mol | ΔH (GST-COI1/JAZP1): -24.3 kcal/mol | Kd (COI1-JAZ1; read-out: Kd COI1-JAZ1): 17.7 µM | (3R, 7R)-JA-Ile formed by isomerization under DSF conditions [3]: 63.9% | (3R, 7S)-JA-Ile remaining under DSF conditions [3]: 36.1% | interaction between JAZP1-ligand (JAZP1): no interaction | Kd (COI1-JAZ9 [4]): 7.39 µM | Kd (GST-COI1): 11 µM | -TΔS (GST-COI1; iTC, GST-COI1): 13.3 kcal/mol | ΔG (GST-COI1; iTC, GST-COI1): -6.8 kcal/mol | ΔH (GST-COI1; iTC, GST-COI1): -20.0 kcal/mol | n (binding stoichiometry) (GST-COI1; iTC, GST-COI1, N = 1 set manually due to low C condition): 1.00

CC[C@H]1C=C(C(=O)N[C@H](C(=O)O)[C@@H](C)CC)[C@H]2CCC(=O)[C@H]2C1 [CFA-Ile, (3R, 7S)-coronafacyl L-Ile]
Kd (COI1-JAZ1; read-out: Kd COI1-JAZ1): 2.66 µM | Kd (COI1-JAZ9 [4]): 2.95 µM | Kd (COI1 [1]): 14.1 µM | shift in the melting point of COI1 (COI1 [1]; DSF): significant shift

CCC1C=C(C(=O)N[C@H](C(=O)O)C(C)C)C2CCC(=O)C2C1 (stereo partly drawn) [CFA-Val, (3R, 7S)-coronafacyl L-Val]
Kd (COI1-JAZ1; DSF, 1 μM tag-free COI1 with 3 μM JAZP1, read-out: Kd COI1-JAZ1): 6.63 µM | Kd (COI1-JAZ9 [4]; DSF, 1 μM tag-free COI1 with 3 μM JAZP9): 9.77 µM | shift in the melting point of COI1 (COI1 [1]; DSF): significant shift | Kd (COI1 [1]; read-out: Kd COI1, DSF, 1 μM tag-free COI1, ΔTm dose-response curve fitting): 28.1 µM

CC[C@H]1C=C(C(=O)N[C@@]2(C(=O)O)C[C@@H]2CC)[C@H]2CCC(=O)[C@H]2C1 [COR, coronatine]
Kd (COI1-JAZ1; read-out: Kd COI1-JAZ1): 0.6 µM | affinity for COI1-JAZ9 relative to (3R, 7S)-JA-Ile (COI1-JAZ9 [5]): approximately 100 times | Kd (COI1 [6]): 0.96 µM | Kd (COI1-JAZ9 [4]): 0.29 µM | Kd (COI1-JAZP1): ~0.11 µM | Kd (COI1 [1]): 4.08 µM | shift in the melting point of COI1 (COI1 [1]; DSF): shifted to a higher temperature

CC[C@H]1C=C(C(=O)N[C@@]2(C(=O)O)C[C@@H]2CC)[C@H]2CCC(=NOC)[C@H]2C1 [COR-MO]
Kd (COI1-JAZ1; read-out: Kd COI1-JAZ1): 2.31 µM | Kd (COI1-JAZ9 [4]): 2.67 µM | Kd (COI1 [1]): 2.65 µM | shift in the melting point of COI1 (COI1 [1]; DSF): shifted to a higher temperature

CCC=CCC1C(=O)CCC1CC(=O)NC1(C(=O)O)CC1CC [JA-CMA, (3R, 7S)/(3R, 7R)-jasmonoyl CMA]
Kd (COI1-JAZ1): 33.5 µM | Kd (COI1-JAZ9 [4]): 24.2 µM | shift in the melting point of COI1 (COI1 [1]; DSF): little or no shift

CC/C=C\C[C@@H]1C(=O)C=C[C@@H]1CCCCCCCC(=O)O [cis-OPDA, (+)-cis-12-oxo-phytodienoic acid]
shift in the melting point of COI1 (COI1 [1]; DSF): no shift
